Experimental data published in patent publication US20230248665A1, “COMPOSITION COMPRISING DIMETHYLCHALCONE DERIVATIVE FOR PREVENTION OR TREATMENT OF METABOLIC DISEASE” (SEOUL NATIONAL UNIVERSITY R & DB FOUNDATION, priority 2020, published 2023).

Experiments:
Assay type in all cases: cell-based
[1] = test system: vascular endothelial cells (HUVECs) and THP-1 (human monocyte) immune cells; test: Binding of THP-1 immune cells to TNFα-treated vascular endothelial cells (HUVECs); settings: 10 µM with 10 ng/mL TNFα, 24 hours, then THP-1 for 1 hour; FIG. 5
Method: In the early stages of progression of vascular diseases such as arteriosclerosis, adhesion materials are expressed in vascular endothelial cells due to various environmental factors, thereby increasing the binding of immune cells. Therefore, in order to check whether the DMC derivatives of Example 1 affect the binding between vascular endothelial cells and immune cells, vascular endothelial cells (HUVECs) were treated with 10 ng/mL TNFα and 10 µM DMC derivative and cultured for 24 hours. Then, THP-1 (human monocyte) immune cells labeled with a fluorescent protein were added to the culture solution, and the cells were additionally cultured for 1 hour. After the culture was completed, unbound immune cells were removed using a phosphate buffer solution, and then the degree of binding of immune cells to vascular endothelial cells was determined by measuring the intensity of fluorescence.

[2] = test system: rat aortic smooth muscle cells; test: PDGF-induced migration of vascular smooth muscle cells; settings: 1 µM with 10 ng/mL PDGF; FIG. 4
Method: Proliferation and migration of vascular smooth muscle cells are known to be essential steps in the progression of vascular diseases such as restenosis and arteriosclerosis. Therefore, in order to confirm the effect of the DMC derivatives of Example 1 on the migration of rat aortic smooth muscle cells, smooth muscle cells were treated with 10 ng/mL platelet-derived growth factor (PDGF) and 1 µM DMC derivative and cultured. Then, the degree of cell migration was measured.

[3] = test system: human kidney proximal tubule epithelial cell (HK-2) cell line; test: Antioxidant effect, intracellular reactive oxygen species (DCF-DA) in HK-2 kidney cells after H2O2; settings: 1 µM for 18 hours, then 500 µM H2O2 for 6 hours, FIG. 6
Method: First, the antioxidant effect was checked using kidney cells. More specifically, a human kidney proximal tubule epithelial cell (HK-2) cell line was treated with 1 µM DMC derivative and cultured for 18 hours. Then, 500 µM H2O2 was added to the culture medium and the culture medium was incubated for 6 hours. Thereafter, the amount of intracellular reactive oxygen species (iROS) was measured using dichlorohydro-fluorescein diacetate (DCF-DA).

AMPK = AMPK activity, western blotting of phosphorylated AMPK in C2C12 myotubes; settings: 10 µM, 24 hours, FIG. 2
Text: AMP-activated protein kinase (AMPK) is a member of serine/threonine kinases, and is an enzyme known as an energy sensor which senses the intracellular energy state. Moreover, the activation of AMPK is known to show the effect of increasing glucose transport and promoting fatty acid oxidation in skeletal muscle, and to […] the synthesis of cholesterol and triglycerides, decrease lipogenesis, and increase fatty acid oxidation, and ketogenesis, and the like in the liver. Further, the activation of AMPK is known to reduce adipogenesis in adipose tissue and increase insulin secretion in pancreatic beta cells, thereby being able to be applied to the treatment of various metabolic diseases. Therefore, western blotting was performed in order to confirm the effect of the DMC derivatives of Example 1 on AMPK activity. More specifically, the C2C12 myoblasts were primarily cultured in DMEM supplemented with 10% fetal bovine serum, and then cultured in DMEM supplemented with 2% horse serum for 5 days to differentiate into myotubes. Then, the differentiated myotubes were treated with 10 µM DMC derivative and cultured for 24 hours, and then cells were collected, and disrupted using an ultrasonic disperser to obtain proteins. Next, western blotting was performed using a pAMPK antibody (Cell Signaling Technology) and an AMPK antibody (Cell Signaling Technology) to measure the amount of phosphorylated AMPK. 1 mM AICAR was used as a positive control, and 20 µg of protein was used for each sample in western blotting.

Compound	binding of immune cells to vascular endothelial cells (fluorescence) [1]	migration of vascular smooth muscle cells [2]	amount of intracellular reactive oxygen species (ROS) [3]	activity of AMPK (phosphorylated AMPK) (AMPK)
COc1c(C)c(O)c(C)c(O)c1C(=O)/C=C/c1ccc(F)cc1 [Chemical Formula 2, 1-(2′,4′-dihydroxy-6′-methoxy-3′,5′-dimethylphenyl)-3-(4-fluorophenyl)-2-propen-l-one]	similarly or more effectively suppressed the binding of immune cells than Rosi	similarly or more effectively suppressed cell migration by PDGF than AICAR and Rosi, which were used as positive controls, and DMC	effectively reduced ROS	
COc1c(C)c(O)c(C)c(O)c1C(=O)/C=C/c1ccc(C)cc1 [Chemical Formula 3, 1-(2′,4′-dihydroxy-6′-methoxy-3′,5′-dimethylphenyl)-3-(4-tolyl)-2-propen-1-one]	similarly or more effectively suppressed the binding of immune cells than Rosi	similarly or more effectively suppressed cell migration by PDGF than AICAR and Rosi, which were used as positive controls, and DMC	effectively reduced ROS	increased the activity of AMPK similarly to or more effectively than the positive controls
COc1c(C)c(O)c(C)c(O)c1C(=O)/C=C/c1ccc(F)c(F)c1 [Chemical Formula 6, 1-(2′,4′-dihydroxy-6′-methoxy-3′,5′-dimethylphenyl)-3-(3,4-difluorophenyl)-2-propen-1-one]	similarly or more effectively suppressed the binding of immune cells than Rosi		effectively reduced ROS	increased the activity of AMPK similarly to or more effectively than the positive controls
COc1c(C)c(O)c(C)c(O)c1C(=O)/C=C/c1ccc(N(C)C)cc1 [Chemical Formula 7, 1-(2,4′-dihydroxy-6′-methoxy-3′,5′-dimethylphenyl)-3-(4-(N,N-dimethylamino)phenyl)-2-propen-1-one]	similarly or more effectively suppressed the binding of immune cells than Rosi		effectively reduced ROS	
COc1c(C)c(O)c(C)c(O)c1C(=O)/C=C/c1ccc(Cl)cc1 [Chemical Formula 8, 1-(2′,4′-dihydroxy-6′-methoxy-3′,5′-dimethylphenyl)-3-(4-chlorophenyl)-2-propen-1-one]	similarly or more effectively suppressed the binding of immune cells than Rosi		effectively reduced ROS	increased the activity of AMPK similarly to or more effectively than the positive controls
COc1c(C)c(O)c(C)c(O)c1C(=O)/C=C/c1ccc(C(F)(F)F)cc1 [Chemical Formula 9, 1-(2′,4′-dihydroxy-6′-methoxy-3′,5′-dimethylphenyl)-3-(4-(trifluoromethyl)phenyl)-2-propen-1-one]	similarly or more effectively suppressed the binding of immune cells than Rosi		effectively reduced ROS	increased the activity of AMPK similarly to or more effectively than the positive controls
COc1ccc(OC)c(/C=C/C(=O)c2c(O)c(C)c(O)c(C)c2OC)c1 [Chemical Formula 10, 1-(2′,4′-dihydroxy-6′-methoxy-3′,5′-dimethylphenyl)-3-(2,5-dimethoxyphenyl)-2-propen-1-one]	similarly or more effectively suppressed the binding of immune cells than Rosi		effectively reduced ROS	
COCOc1c(C)c(O)c(C(=O)/C=C/c2ccc(F)c(F)c2)c(OC)c1C [Chemical Formula 11, 1-(2′-hydroxy-4′-(methoxymethoxy)-6′-methoxy-3′,5′-dimethylphenyl)-3-(3,4-difluorophenyl)-2-propen-1-one]	similarly or more effectively suppressed the binding of immune cells than Rosi		effectively reduced ROS	increased the activity of AMPK similarly to or more effectively than the positive controls
COCOc1c(C)c(O)c(C(=O)/C=C/c2ccc(Cl)cc2)c(OC)c1C [Chemical Formula 12, 1-(2′-hydroxy-4′-(methoxymethoxy)-6′-methoxy-3′,5′-dimethyphenyl)-3-(4-chlorophenyl)-2-propen-1-one]	similarly or more effectively suppressed the binding of immune cells than Rosi		effectively reduced ROS	increased the activity of AMPK similarly to or more effectively than the positive controls
COCOc1c(C)c(O)c(C(=O)/C=C/c2ccc(SC)cc2)c(OC)c1C [Chemical Formula 13, 1-(2′-hydroxy-4′-(methoxymethoxy)-6′-methoxy-3′,5′-dimethyphenyl)-3-(4-methylthiophenyl)-2-propen-1-one]	similarly or more effectively suppressed the binding of immune cells than Rosi	similarly or more effectively suppressed cell migration by PDGF than AICAR and Rosi, which were used as positive controls, and DMC	effectively reduced ROS	
COCOc1c(C)c(O)c(C(=O)/C=C/c2ccc(C(F)(F)F)cc2)c(OC)c1C [Chemical Formula 14, 1-(2′-hydroxy-4′-(methoxymethoxy)-6′-methoxy-3′,5′-dimethylphenyl)-3-(4-(trifluoromethyl)phenyl)-2-propen-1-one]	similarly or more effectively suppressed the binding of immune cells than Rosi		effectively reduced ROS	
CCOc1ccc(/C=C/C(=O)c2c(O)c(C)c(O)c(C)c2OC)cc1F [Chemical Formula 33, 1-(2′,4′-dihydroxy-6′-methoxy-3′,5′-dimethylphenyl)-3-(4-ethoxy-3-fluorophenyl)-2-propen-1-one]	similarly or more effectively suppressed the binding of immune cells than Rosi	similarly or more effectively suppressed cell migration by PDGF than AICAR and Rosi, which were used as positive controls, and DMC	effectively reduced ROS	
COCOc1c(C)c(O)c(C(=O)/C=C/c2cccc(F)c2)c(OC)c1C [Chemical Formula 35, 1-(2′-hydroxy-4′-(methoxymethoxy)-6′-methoxy-3′,5′-dimethylphenyl)-3-(3-fluorophenyl)-2-propen-1-one]	similarly or more effectively suppressed the binding of immune cells than Rosi		effectively reduced ROS	
COCOc1c(C)c(O)c(C(=O)/C=C/c2ccccc2Cl)c(OC)c1C [Chemical Formula 38, 1-(2′-hydroxy-4′-(methoxymethoxy)-6′-methoxy-3′,5′-dimethylphenyl)-3-(2-chlorophenyl)-2-propen-1-one]	similarly or more effectively suppressed the binding of immune cells than Rosi	similarly or more effectively suppressed cell migration by PDGF than AICAR and Rosi, which were used as positive controls, and DMC		
COc1c(C)c(O)c(C)c(O)c1C(=O)/C=C/c1ccc(C)cc1C [Chemical Formula 39, 1-(2′,4′-dihydroxy-6′-methoxy-3′,5′-dimethylphenyl)-3-(2,4-dimethylphenyl)-2-propen-1-one]	similarly or more effectively suppressed the binding of immune cells than Rosi	similarly or more effectively suppressed cell migration by PDGF than AICAR and Rosi, which were used as positive controls, and DMC		increased the activity of AMPK similarly to or more effectively than the positive controls
